Measurements from US6544984B1, “2,3,4,5-tetrahydro-1H-(1,4)benzodiazepine-3-hydroxamic acids” (American Cyanamid Company, priority 1999, dated 2003).
Where two headings read alike, the source gives them in different places.

Columns and labels:
[1] = target: T1, MMP-1 (Homo sapiens, UniProt P03956); test: In vitro collagenase assay (fluorogenic peptide substrate); type: biochemical; settings: human recombinant fibroblast collagenase
T1 construct: human recombinant fibroblast collagenase (truncated, mw=18,828)
T1 sequence (P03956 100-269 limits assumed): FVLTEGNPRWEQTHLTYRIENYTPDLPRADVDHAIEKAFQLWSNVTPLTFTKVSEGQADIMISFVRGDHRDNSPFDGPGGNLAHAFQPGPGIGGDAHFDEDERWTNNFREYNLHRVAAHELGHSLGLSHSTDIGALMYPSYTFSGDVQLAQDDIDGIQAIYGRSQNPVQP
Source text: In Vitro Collagenase Assay
This assay was based on the cleavage of a peptide substrate ((Dnp-Pro-Cha-Gly-Cys(Me)-His-Ala-Lys(NMa)-NH2), available from Peptide International, Inc.) by collagenase releasing the fluorescent NMa group which was quantitated on the fluorometer as disclosed in Bickett et al., “A High Throughput Fluorogenic Substrate for Interstitial Collagenase (MMP-1) and Gelatinase (MMP-9)”, Anal. Biochem., 212:58-64, (1993). Dnp quenches the NMa fluorescence in the intact substrate.
The assay was run in HCBC assay buffer (50 mM HEPES, pH 7.0, 5 mM Ca^+2, 0.02% Brij, 0.5% Cysteine), with human recombinant fibroblast collagenase (truncated, mw=18,828, from Wyeth-Ayerst Research, Radnor, Pa.). The substrate was dissolved in methanol and stored frozen in 1 mM aliquots. Collagenase was stored frozen in buffer in 25 μM aliquots. In conducting the assay, the substrate was dissolved in HCBC buffer to a final concentration of 10 μM and collagenase to a final concentration of 5 nM. The compounds being examined were dissolved in methanol, DMSO, or HCBC. The methanol and DMSO were diluted in HCBC to <1.0%. The compounds were added to a 96 well plate containing enzyme and the reaction was started by the addition of substrate.
(§1) The reaction was read (excitation 340 nm, emission 444 nm) for 10 min. and the increase in fluorescence over time was plotted as a linear line. The slope of the line was calculated representing the reaction rate. The linearity of the reaction rate was confirmed (r^2>0.85). The mean (x±sem) of the control rate was calculated and compared for statistical significance (p<0.05) with drug-treated rates using Dunnett's multiple comparison test.

[2] = target: T2, MMP-9 (Homo sapiens, UniProt P14780); test: In vitro gelatinase assay (thiopeptide substrate, DTNB); type: biochemical; settings: human neutrophil gelatinase B
T2 construct: human neutrophil gelatinase B; from tissue; host or cells: human neutrophils
Method: In Vitro Gelatinase Assay
The assay is based on the cleavage of the thiopeptide substrate ((Ac-Pro-Leu-Gly(2-mercapto-4-methyl-pentanoyl)-Leu-Gly-OEt), available from Bachem Bioscience) by the enzyme gelatinase, releasing the substrate product which reacts calorimetrically with DTNB ((5,5′-dithio-bis(2-nitro-benzoic acid)). This assay is disclosed in Weingarten et al., “Spectrophotometric Assay for Vertebrate Collegenase”, Anal. Biochem., 147:437-440, (1985). The enzyme activity is measured by the rate of the color increase.
The thiopeptide substrate was made up fresh as a 20 mM stock in 100% DMSO and the DTNB was dissolved in 100% DMSO as a 100 mM stock and stored in the dark at room temperature. The substrate and the DTNB were diluted together to 1 mM with substrate buffer (50 mM HEPES, pH 7.5, 5 mM CaCl2) before use. The stock of human neutrophil gelatinase B was diluted with assay buffer (50 mM HEPES, pH 7.5, 5 mM CaCl2, 0.02% Brij) to a final concentration of 0.15 nM.
The assay buffer, enzyme, DTNB/substrate (500 μM final concentration) and vehicle or inhibitor were added to a 96 well plate (total reaction volume of 200 μl) and the increase in color was monitored spectrophotometrically for 5 minutes at 405 nm on a plate reader.
The increase in OD405 was plotted and the slope of the line was calculated. The slope represents the reaction rate. The linearity of the reaction rate was confirmed (r^2>0.85) and the mean (x±sem) of the control rate was calculated and compared for statistical significance (p<0.05) with drug-treated rates using Dunnett's multiple comparison test.

[3] = target: MMP-13 (Homo sapiens, UniProt P45452); test: MMP-13 inhibition; type: biochemical
[4] = target: T3, TACE (Homo sapiens, UniProt P78536); test: Procedure for measuring TACE inhibition (fluorescent peptidyl substrate); type: biochemical
T3 construct: purchased Immunex
Method: Procedure for Measuring TACE Inhibition
The plates were incubated for 10 minutes at room temperature. The reaction was initiated by addition of a fluorescent peptidyl substrate (final concentration 100 μM) to each well with shaking on a shaker for 5 sec.
as §1, with “420” for “444”, “and this represents” for “representing”, “The linearity of the reaction rate was confirmed (r^2>0.85).” left out

T3 sequence (P78536 215-824): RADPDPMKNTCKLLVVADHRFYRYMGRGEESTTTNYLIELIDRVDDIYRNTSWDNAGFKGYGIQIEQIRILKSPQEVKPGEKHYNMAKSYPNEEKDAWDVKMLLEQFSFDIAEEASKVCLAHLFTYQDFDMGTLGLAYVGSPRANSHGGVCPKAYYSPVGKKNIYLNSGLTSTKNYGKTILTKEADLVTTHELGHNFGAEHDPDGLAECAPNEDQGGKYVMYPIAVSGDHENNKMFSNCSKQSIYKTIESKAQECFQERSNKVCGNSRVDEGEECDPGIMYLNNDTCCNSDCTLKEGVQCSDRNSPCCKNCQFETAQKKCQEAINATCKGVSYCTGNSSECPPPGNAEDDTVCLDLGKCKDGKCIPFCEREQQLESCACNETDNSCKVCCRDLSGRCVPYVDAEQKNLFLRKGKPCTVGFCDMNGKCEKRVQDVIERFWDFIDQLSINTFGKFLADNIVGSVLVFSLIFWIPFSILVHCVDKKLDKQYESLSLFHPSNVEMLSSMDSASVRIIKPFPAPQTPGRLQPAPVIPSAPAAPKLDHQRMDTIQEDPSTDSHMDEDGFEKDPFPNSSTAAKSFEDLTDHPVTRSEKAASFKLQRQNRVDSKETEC
T2 sequence (P14780 94-707): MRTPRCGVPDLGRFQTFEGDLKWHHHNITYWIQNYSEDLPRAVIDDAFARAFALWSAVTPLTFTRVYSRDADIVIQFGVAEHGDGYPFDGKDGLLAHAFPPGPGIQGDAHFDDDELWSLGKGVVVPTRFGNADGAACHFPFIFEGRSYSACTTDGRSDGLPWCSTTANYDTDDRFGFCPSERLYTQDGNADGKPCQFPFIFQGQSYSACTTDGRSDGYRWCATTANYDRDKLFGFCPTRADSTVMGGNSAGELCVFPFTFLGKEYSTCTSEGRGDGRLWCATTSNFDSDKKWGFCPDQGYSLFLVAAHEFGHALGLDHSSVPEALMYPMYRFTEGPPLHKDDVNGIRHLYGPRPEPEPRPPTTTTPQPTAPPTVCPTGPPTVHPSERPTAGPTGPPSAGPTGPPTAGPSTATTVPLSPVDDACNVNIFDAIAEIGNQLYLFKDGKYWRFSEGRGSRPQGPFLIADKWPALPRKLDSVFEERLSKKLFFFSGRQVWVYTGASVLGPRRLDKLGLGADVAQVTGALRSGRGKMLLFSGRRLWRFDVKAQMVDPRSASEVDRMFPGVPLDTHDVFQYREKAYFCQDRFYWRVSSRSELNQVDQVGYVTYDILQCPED

Structure (SMILES)	IC50 [1]	IC50 [2]	IC50 [3]	IC50 [4]	melting point	IC50 ([3]; read-out: IC50 (nM) MMP-13)	IC50 ([4]; read-out: IC50 (nM) TACE)
CC#CCOc1ccc(S(=O)(=O)N2Cc3ccccc3N(C(=O)c3ccco3)CC2C(=O)NO)cc1 (centres unmarked) [Example 57, 4-(4-But-2-ynyloxybenzenesulfonyl)-1-(2-furanylcarbonyl)-2,3,4,5-tetrahydro-1H-[1,4]benzodiazepine-3-carboxylic acid hydroxyamide]	125 nM	2 nM	7 nM	33 nM	119 to 120 °C		
CC#CCOc1ccc(S(=O)(=O)N2Cc3ccccc3N(C(=O)c3cccs3)CC2C(=O)NO)cc1 (centres unmarked) [Example 2, 4-(4-But-2-ynyloxybenzenesulfonyl)-1-(2-thienylcarbonyl)-2,3,4,5-tetrahydro-1H-[1,4]benzodiazepine-3-carboxylic acid, hydroxyamide]	250 nM	24 nM				8 nM	38 nM
CC#CCOc1ccc(S(=O)(=O)N2Cc3ccccc3N(C(C)=O)CC2C(=O)NO)cc1 (centres unmarked) [Example 1, 1-Acetyl-4-(4-but-2-ynyloxbenzenesulfonyl)-2,3,4,5-tetrahydro-1H-[1,4]benzodiazepine-3-carboxylic acid, hydroxyamide]	835 nM	228 nM				77 nM	16 nM
CC#CCOc1ccc(S(=O)(=O)N2Cc3ccccc3N(C(=O)c3ccccc3)CC2C(=O)NO)cc1 (centres unmarked) [Example 3, 1-Benzoyl-4-(4-but-2-ynyloxybenzenesulfonyl)-2,3,4,5-tetrahydro-1H-[1,4]-benzodiazepine-3-carboxylic acid, hydroxyamide]						10 nM	
CC#CCOc1ccc(S(=O)(=O)N2Cc3ccccc3N(C(=O)C3CC3)CC2C(=O)NO)cc1 (centres unmarked) [Example 58, 1-Cyclopropylcarbonyl-4-(4-but-ynyloxybenzenesulfonyl)-2,3,4,5-tetrahydro-1H-[1,4]benzodiazepine-3-carboxylic acid, hydorxyamide]	841 nM	33 nM				29 nM	
